Patent publication US8784910B2, “Antimicrobial compositions” (Lonza Inc., priority 2002, dated 2014)

How the values were obtained:
Format in all cases: cell-based
[1] = tested on: S. aureus, P. aeruginosa, and E. coli; assay: Mixed bacterial challenge of preserved GMS cream (Example 6)
Method: Each anionic shampoo sample in FIGS. 1-3 were tested as follows. […] Each stab was then washed with 3 mL of sterile 0.85% saline solution. The washes of the 3 stabs were pooled together to form an organism mixture. The absorbance of the organism mixture at 530 nm was adjusted to about 1.00 by adding saline. The spectrometer was calibrated with a saline blank. A 5 mL aliquot of the organism mixture was mixed together to produce the standardized mixed bacterial solution. Then, 40 g of each shampoo sample was inoculated with 0.2 mL of the standardized mixed bacterial solution and mixed. 1 g of the mixture was added to a sterile 20×150 mm screw cap test tube. 9 mL of sterile D/E neutralizer broth was added to the test tube and mixed to form a 10^−1 dilution. Serial dilutions were prepared through to a 10^−6 dilution with phosphate buffered water. The serial dilutions were plated onto Tryptic Soy Agar and incubated for 2 days at about 35 EC. Bacteria counts were performed after 21 days. Each cream sample in Table 5 below was tested by the procedure described in Example 1. A glyceryl monostearate (GMS) cream as described in Table 3 below was prepared as follows. The polyoxyethylene glyceryl monostearate, glyceryl monostearate, cetearyl alcohol, and myristyl propionate were mixed and heated to 60 EC in a first container. The glycerin and sterile deionized water were mixed and heated to 60 EC in a second container. The solution in the first container was poured into the second container. The second container was maintained at 60 EC for 10 minutes. The solution in the second container was allowed to cool. The pH of the solution was adjusted to pH 7 with sodium hydroxide to yield the GMS cream. The cream samples shown in Table 6 below were prepared by mixing the appropriate amounts of the preservatives and the GMS cream and heating the mixture to 50 EC for 10-15 minutes.

[2] = tested on: S. aureus (ATCC #6538), P. aeruginosa (ATCC #9027), and E. coli (ATCC #8739); assay: Mixed bacterial challenge of preserved anionic protein shampoo (Examples 4 and 7); details: for Qb: concentration alone required for 100% retardation of the bacteria
Method: Each anionic shampoo sample in Table 3 below was tested as follows. A standardized mixed bacterial solution was prepared according to the following procedure. 3 agar stabs of S. aureus (ATCC #6538), P. aeruginosa (ATCC #9027), and E. coli (ATCC #8739) were separately incubated at about 35 EC for about 24 hours. Each stab was then washed with 3 mL of sterile 0.85% saline solution. The washes of the 3 stabs were pooled together to form an organism mixture. The absorbance of the organism mixture at 530 nm was adjusted to about 1.00 by adding saline. The spectrometer was calibrated with a saline blank. A 5 mL aliquot of the organism mixture was mixed together to produce the standardized mixed bacterial solution. Then, 40 g of each shampoo sample was inoculated with 0.2 mL of the standardized mixed bacterial solution and mixed. 1 g of the mixture was added to a sterile 20×150 mm screw cap test tube.
9 mL of sterile D/E neutralizer broth was added to the test tube and mixed to form a 10^−1 dilution. Serial dilutions were prepared through to a 10^−6 dilution with phosphate buffered water. The serial dilutions were plated onto Tryptic Soy Agar and incubated for 2 days at about 35 EC. Bacteria counts were performed after 0, 7, and 14 days.
The anionic protein shampoo composition was comprised of 35% by weight of sodium lauryl ether sulfate; 25% by weight of triethanolamine lauryl sulfate; 3% by weight coconut diethanolamide (cocamide DEA); 1% by weight of hydrolyzed collagen, available as Polypro 5000™ from Hormel Foods of Austin, Minn.; and 36% by weight of deionized water.
The cinnamaldehyde and other preservative containing samples were prepared by mixing the appropriate amounts of the preservatives and the aforementioned anionic protein shampoo composition and heating the mixture to about 50 EC for about 15 minutes.
Synergism for the cinnamaldehyde/Glydant 2000™ solutions in Table 8 against S. aureus, P. aeruginosa, and E. coli was calculated by the method described in C. E. Kull et al., A Mixtures of Quaternary Ammonium Compounds and Long-chain Fatty Acids as Antifungal Agents@, Applied Microbiology, 9:538-541 (1961). The synergism value (QA/Qa+QB/Qb) in Table 7 was determined. […] Qa is the concentration of cinnamaldehyde alone (in percent by weight) required to yield 100% retardation of the bacteria. QB is the concentration of Glydant 2000™ (in percent by weight) in the mixture, which yielded 100% retardation of the bacteria. Qb is the concentration of Glydant 2000™ alone (in percent by weight) required to yield 100% retardation of the bacteria.
When the value of (QA/Qa+QB/Qb) is less than one, the mixture is synergistic. Values for (QA/Qa+QB/Qb) of 1 and greater than 1, represent an additive effect and an antagonistic effect, respectively.

[3] = tested on: Candida albicans and Aspergillus niger; assay: Mixed fungal challenge of preserved anionic protein shampoo (Example 5)
Method: Each anionic shampoo sample in Table 4 below was tested as follows. A standard mixed […] solution was prepared according to the following procedure. 2 agar […] of Candida albicans and 4 agar […] of Aspergillus niger were separately incubated at about 25 EC for about 48 hours and 7 days, respectively. Each slant was washed with 3 mL of sterile 0.85% saline solution, collected and macerated in a tissue grinder. Sufficient amounts of 0.85% saline solution were added to each slant to obtain a visual count under a microscope with a Neubauer Hemocytometer of each innoculum of C. albicans and A. niger. Equal volumes of each standardized innoculum of C. albicans and A. niger were mixed together to form the standardized mixed fungal solution. 40 g of each shampoo sample was inoculated with 0.4 mL of the standardized mixed fungal solution and mixed. 1 g of the mixture was added to a sterile 20×150 mm screw cap test tube. 9 mL of sterile D/E neutralizer broth was added to the test tube and mixed to form a 10^-1 dilution. Serial dilutions were prepared through to a 10^-6 dilution with phosphate buffered water. The serial dilutions were plated onto Sabourand dextrose agar and incubated 5 days at about 25 EC. […] The anionic protein shampoo composition is described in Example 4. The shampoo samples were prepared by mixing the appropriate amounts of the preservatives and the anionic protein shampoo composition and heating the mixture to about 50 EC for about 15 minutes.

O=CC=Cc1ccccc1 [Cinnamaldehyde, cinnamaldehyde]
S. aureus, P. aeruginosa, and E. coli Day 0 ([1]; 0.10% in GMS cream pH 7, Day 0): 3.0 × 10^7 cfu/g | S. aureus, P. aeruginosa, and E. coli Day 7 ([1]; 0.10% in GMS cream pH 7, Day 7): 4.0 × 10^4 cfu/g | S. aureus, P. aeruginosa, and E. coli Day 14 ([1]; 0.10% in GMS cream pH 7, Day 14): 9.3 × 10^5 cfu/g | S. aureus, P. aeruginosa, and E. coli Day 0 ([1]; 0.25% in GMS cream pH 7, Day 0): 3.0 × 10^7 cfu/g | S. aureus, P. aeruginosa, and E. coli Day 7 ([1]; 0.25% in GMS cream pH 7, Day 7): <10 cfu/g | S. aureus, P. aeruginosa, and E. coli Day 14 ([1]; 0.25% in GMS cream pH 7, Day 14): <10 cfu/g | S. aureus, P. aeruginosa, and E. coli Day 0 ([2]; 0.05% in shampoo, Day 0, Example 7 Table 8): 3.0 × 10^6 cfu/g | S. aureus, P. aeruginosa, and E. coli Day 7 ([2]; 0.05% in shampoo, Day 7, Example 7 Table 8): 6.5 × 10^6 cfu/g | S. aureus, P. aeruginosa, and E. coli Day 14 ([2]; 0.05% in shampoo, Day 14, Example 7 Table 8): 1.0 × 10^7 cfu/g | S. aureus, P. aeruginosa, and E. coli Day 0 ([2]; 0.10% by weight in shampoo, Day 0, Table 3): 3.0 × 10^7 cfu/g | S. aureus, P. aeruginosa, and E. coli Day 7 ([2]; 0.10% by weight in shampoo, Day 7, Table 3): 1.0 × 10^1 cfu/g | S. aureus, P. aeruginosa, and E. coli Day 14 ([2]; 0.10% by weight in shampoo, Day 14, Table 3): <10 cfu/g | S. aureus, P. aeruginosa, and E. coli Day 0 ([2]; 0.10% in shampoo, Day 0, Example 7 Table 8): 3.0 × 10^6 cfu/g | S. aureus, P. aeruginosa, and E. coli Day 7 ([2]; 0.10% in shampoo, Day 7, Example 7 Table 8): 1.0 × 10^1 cfu/g | S. aureus, P. aeruginosa, and E. coli Day 14 ([2]; 0.10% in shampoo, Day 14, Example 7 Table 8): <10 cfu/g | S. aureus, P. aeruginosa, and E. coli Day 0 ([2]; 0.20% by weight in shampoo, Day 0, Table 3): 3.0 × 10^7 cfu/g | S. aureus, P. aeruginosa, and E. coli Day 7 ([2]; 0.20% by weight in shampoo, Day 7, Table 3): <10 cfu/g | S. aureus, P. aeruginosa, and E. coli Day 14 ([2]; 0.20% by weight in shampoo, Day 14, Table 3): <10 cfu/g | S. aureus, P. aeruginosa, and E. coli Day 0 ([2]; 0.25% by weight in shampoo, Day 0, Table 3): 3.0 × 10^7 cfu/g | S. aureus, P. aeruginosa, and E. coli Day 7 ([2]; 0.25% by weight in shampoo, Day 7, Table 3): <10 cfu/g | S. aureus, P. aeruginosa, and E. coli Day 14 ([2]; 0.25% by weight in shampoo, Day 14, Table 3): <10 cfu/g | Qb ([2]; For Day 7): 0.1% | Qb ([2]; For Day 14): 0.05% | Fungal Plate Count Day 0 ([3]; 0.05% in shampoo): 1.0 × 10^5 cfu/g | Fungal Plate Count Day 7 ([3]; 0.05% in shampoo): 8.0 × 10^3 cfu/g | Fungal Plate Count Day 14 ([3]; 0.05% in shampoo): <10 cfu/g | Fungal Plate Count Day 0 ([3]; 0.10% in shampoo): 1.0 × 10^5 cfu/g | Fungal Plate Count Day 7 ([3]; 0.10% in shampoo): 3.0 × 10^1 cfu/g | Fungal Plate Count Day 14 ([3]; 0.10% in shampoo): <10 cfu/g | Fungal Plate Count Day 0 ([3]; 0.20 in shampoo): 1.0 × 10^5 cfu/g | Fungal Plate Count Day 7 ([3]; 0.20 in shampoo): <10 cfu/g | Fungal Plate Count Day 14 ([3]; 0.20 in shampoo): <10 cfu/g
